Results published in PMC3180999 (Journal of medicinal chemistry, 2010).

Experiments:
LNCaP/AR cells = test: PSA expression readout in LNCaP/AR; assay type: cell-based; conditions: for activity using PSA levels in vitro: hormone refractory cell line LNCaP/AR, Scheme 17; for activity in the hormone refractory LNCaP/AR assay: Schemes 18 and 19; for activity: hormone-refractory LNCaP/AR, Scheme 21
LAPC4/AR cells = test: LAPC4/AR xenograft in castrate SCID mice; assay type: in vivo; conditions: 10 mg/kg, pilot experiment, Figure 1
AR [1] = test: luciferase reporter assay; assay type: cell-based; conditions: for relative luciferase activity: vs bicalutamide and 27 as standards, Scheme 8; for luciferase assay activity: vs 21 and 22 as standards, Scheme 13; for luciferase reporter assay activity: Scheme 14
PSA secretion = test: relative PSA level / PSA secretion assay, cell line not named; assay type: cell-based; conditions: for relative PSA expression levels: vs bicalutamide and 27 as standards, Scheme 9
AR [2] = test: activity test, assay not named; assay type: cell-based; conditions: 27 as the standard, Scheme 10
[3] = pharmacokinetics: serum concentration, steady state concentration
[4] = vs 27 and 38 as standards, Scheme 12
[5] = vs 21 and 22 as standards, Scheme 13

CC(O)(CS(=O)(=O)c1ccc(F)cc1)C(=O)Nc1ccc(C#N)c(C(F)(F)F)c1 (stereo not drawn) [bicalutamide, reference compound]
activity using PSA levels in vitro (LNCaP/AR cells): inactive

Cc1ccc(N2C(=S)N(c3ccc(C#N)c(C(F)(F)F)c3)C(=O)C2(C)C)cc1 [compound 27, 4-[3-(4-Methylphenyl)-4,4-dimethyl-5-oxo-2-thioxoimidazolidin-1-yl]-2-trifluoromethylbenzonitrile]
fold change in tumor volume of xenografts (LAPC4/AR cells): more effective than bicalutamide

CCC1(C)C(=O)N(c2ccc(C)cc2)C(=S)N1c1ccc(C#N)c(C(F)(F)F)c1 (stereo not drawn) [compound 36, 4-[3-(4-Methylphenyl)-5-ethyl-5-methyl-4-oxo-2-thioxoimidazolidin-1-yl]-2-trifluoromethylbenzonitrile]
relative luciferase activity (AR [1]): reduced activity relative to 27

CCC1(CC)C(=O)N(c2ccc(C)cc2)C(=S)N1c1ccc(C#N)c(C(F)(F)F)c1 [compound 37, 4-[3-(4-Methylphenyl)-5,5-diethyl-4-oxo-2-thioxoimidazolidin-1-yl]-2-trifluoromethylbenzonitrile]
relative luciferase activity (AR [1]): reduced activity relative to 27

Cc1ccc(N2C(=S)N(c3ccc(C#N)c(C(F)(F)F)c3)C(=O)C23CCCC3)cc1 [compound 39, 4-(4-Oxo-2-thioxo-1-(4-methylphenyl)-1,3-diazaspiro[4.4]non-3-yl)-2-trifluoromethylbenzonitrile]
relative PSA expression levels (PSA secretion): comparable to the dimethyl analogue 27

Cc1ccc(N2C(=S)N(c3ccc(C#N)c(C(F)(F)F)c3)C(=O)C23CCN(C)CC3)cc1 [compound 43, 4-(8-Methyl-4-oxo-2-thioxo-1-(4-methylphenyl)-1,3,8-triazaspiro[4.5]dec-3-yl)-2-trifluoromethylbenzonitrile]
relative PSA expression levels (PSA secretion): distinctly less active

Cc1ccccc1N1C(=S)N(c2ccc(C#N)c(C(F)(F)F)c2)C(=O)C12CCC2 [compound 44]
activity (AR [2]): active

N#Cc1ccc(N2C(=O)C3(CCC3)N(c3ccccc3C(=O)O)C2=S)cc1C(F)(F)F [compound 45]
activity (AR [2]): inactive

Cc1ccc(N2C(=S)N(c3ccc(C#N)c(C(F)(F)F)c3)C(=O)C2(CCl)CCl)cc1 [compound 46]
activity (AR [2]): decreased activity

Cc1ccc(N2C(=S)N(c3ccc(C#N)c(C(F)(F)F)c3)C(=O)C2(C)CF)cc1 (stereo not drawn) [compound 47]
activity (AR [2]): good activity

N#Cc1ccc(N2C(=O)C3(CCC3)N(c3ccc(-c4ccccc4)cc3)C2=S)cc1C(F)(F)F [compound 48]
relative PSA readout (PSA secretion; vs standards, Scheme 11): very similar in activity to 38

N#Cc1ccc(N2C(=O)C3(CCC3)N(c3ccc(O)cc3)C2=S)cc1C(F)(F)F [compound 49, 4-(8-Oxo-6-thioxo-5-(4-hydroxyphenyl)-5,7-diazaspiro[3.4]oct-7-yl)-2-trifluoromethylbenzonitrile]
relative PSA readout (PSA secretion; vs standards, Scheme 11): very similar in activity to 38

CC1(C)C(=O)N(c2ccc(C#N)c(C(F)(F)F)c2)C(=S)N1c1ccc(C(F)(F)F)cc1 [compound 52, 4-(4,4-Dimethyl-5-oxo-2-thioxo-3-(4-trifluoromethylphenyl)imidazolidin-1-yl)-2-trifluoromethylbenzonitrile]
relative PSA readout (PSA secretion; vs standards, Scheme 11): slightly more active than the methyl analogue 27

Cc1ccc(N2C(=S)N(c3ccc(C#N)c(C(F)(F)F)c3)C(=N)C23CCC3)cc1 [compound 53]
relative PSA readout (PSA secretion; [4]): nearly as active as the parent compounds 27 and 38

Cc1ccc(N2C(=S)N(c3ccc(C#N)c(C(F)(F)F)c3)C(=N)C2(C)C)cc1 [compound 54]
relative PSA readout (PSA secretion; [4]): nearly as active as the parent compounds 27 and 38

CC1(C)C(=S)N(c2ccc(C#N)c(C(F)(F)F)c2)C(=S)N1c1ccc(O)cc1 [compound 55]
relative PSA readout (PSA secretion; [4]): not as active as the parent thiohydantoin 28

CC1(C)C(=O)N(c2ccc(C#N)c(C(F)(F)F)c2)C(=O)N1c1ccc(O)cc1 [compound 56]
relative PSA readout (PSA secretion; [4]): not as active as the parent thiohydantoin 28

C/N=C1\N(c2ccc(C#N)c(C(F)(F)F)c2)C(=S)N(c2ccc(C)cc2)C12CCC2 [compound 57]
luciferase assay activity (AR [1]): somewhat active
relative PSA levels (PSA secretion; [5]): somewhat active

CC/N=C1\N(c2ccc(C#N)c(C(F)(F)F)c2)C(=S)N(c2ccc(C)cc2)C1(C)C [compound 60]
luciferase assay activity (AR [1]): somewhat active
relative PSA levels (PSA secretion; [5]): somewhat active

Cc1ccc(N2/C(=N/c3ccc(C#N)c(C(F)(F)F)c3)S/C(=N\C(=S)Nc3ccc(C#N)c(C(F)(F)F)c3)C2(C)C)cc1 [compound 63]
luciferase reporter assay activity (AR [1]): excellent activity comparable to their parent thiohydantoin analogues 27 and 38
relative PSA levels (PSA secretion; Scheme 14): excellent activity comparable to their parent thiohydantoin analogues 27 and 38

Cc1ccc(N2/C(=N/c3ccc(C#N)c(C(F)(F)F)c3)S/C(=N\C(=S)Nc3ccc(C#N)c(C(F)(F)F)c3)C23CCC3)cc1 [compound 64]
luciferase reporter assay activity (AR [1]): excellent activity comparable to their parent thiohydantoin analogues 27 and 38
relative PSA levels (PSA secretion; Scheme 14): excellent activity comparable to their parent thiohydantoin analogues 27 and 38

N#Cc1ccc(N2C(=O)C3(CCC3)N(c3ccc(C=O)cc3)C2=S)cc1C(F)(F)F [compound 75, 4-[5-(4-Formylphenyl)-8-oxo-6-thioxo-5,7-diazaspiro[3.4]oct-7-yl]-2-trifluoromethylbenzonitrile]
IC50 (PSA secretion): 200 to 300 nM

CC(O)c1ccc(N2C(=S)N(c3ccc(C#N)c(C(F)(F)F)c3)C(=O)C23CCC3)cc1 (stereo not drawn) [compound 76, 4-{5-[4-(1-Hydroxyethyl)phenyl]-8-oxo-6-thioxo-5,7-diazaspiro[3.4]oct-7-yl}-2-trifluoromethylbenzonitrile]
IC50 (PSA secretion): 200 to 300 nM

N#Cc1ccc(N2C(=O)C3(CCC3)N(c3ccc(/C=C/C(N)=O)cc3)C2=S)cc1C(F)(F)F [compound 77, (E)-3-{4-[7-(4-cyano-3-trifluoromethylphenyl)-8-oxo-6-thioxo-5,7-diazaspiro[3.4]oct-5-yl]-phenyl}-2-propanamide]
IC50 (PSA secretion): 100 to 150 nM

N#Cc1ccc(N2C(=O)C3(CCC3)N(c3ccc(/C=C/CO)cc3)C2=S)cc1C(F)(F)F [compound 78, (E)-4-{5-[4-(3-Hydroxy-1-propenyl)phenyl]-8-oxo-6-thioxo-5,7-diazaspiro[3.4]oct-7-yl}-2-trifluoromethylbenzonitrile]
IC50 (PSA secretion): 100 to 150 nM

CNC(=O)CCCc1ccc(N2C(=S)N(c3ccc(C#N)c(C(F)(F)F)c3)C(=O)C23CCC3)cc1 [compound 80, N-Methyl-4-{4-[7-(4-cyano-3-trifluoromethylphenyl)-8-oxo-6-thioxo-5,7-diaza-spiro[3.4]-oct-5-yl]phenyl}butanamide]
PK (serum concentration curve) ([3]; Figure 4): poor
metabolism seen ([3]; mouse, in vivo): hydrolysis of the N-methyl amide to the acid was seen
activity using PSA levels in vitro (LNCaP/AR cells): most active compound

CS(=O)(=O)c1ccc(N2C(=S)N(c3ccc(C#N)c(C(F)(F)F)c3)C(=O)C23CCC3)cc1 [compound 86, 4-[5-(4-Methanesulfonylphenyl)-8-oxo-6-thioxo-5,7-diazaspiro[3.4]oct-7-yl]-2-trifluoromethylbenzonitrile]
activity in the hormone refractory LNCaP/AR assay (LNCaP/AR cells): good activity

COC(=O)c1ccc(N2C(=S)N(c3ccc(C#N)c(C(F)(F)F)c3)C(=O)C2(C)C)cc1 [compound 87, 4-[3-(4-Cyano-3-trifluoromethylphenyl)-5,5-dimethyl-4-oxo-2-thioxo-imidazolidin-1-yl]benzoic acid methyl ester]
activity in the hormone refractory LNCaP/AR assay (LNCaP/AR cells): good activity

CNC(=O)c1ccc(N2C(=S)N(c3ccc(C#N)c(C(F)(F)F)c3)C(=O)C2(C)C)cc1 [compound 88, 4-[3-(4-Cyano-3-trifluoromethylphenyl)-5,5-dimethyl-4-oxo-2-thioxo-imidazolidin-1-yl]-N-methylbenzamide]
activity in the hormone refractory LNCaP/AR assay (LNCaP/AR cells): good activity

CNC(=O)c1ccc(N2C(=S)N(c3ccc(C#N)c(C(F)(F)F)c3)C(=O)C23CCC3)cc1 [compound 89, N-methyl-4-[7-(4-cyano-3-trifluoromethylphenyl)-8-oxo-6-thioxo-5,7-diazaspiro-[3.4]oct-5-yl]benzamide]
activity in the hormone refractory LNCaP/AR assay (LNCaP/AR cells): good activity

N#Cc1ccc(N2C(=O)C3(CCC3)N(c3ccc(O)cc3F)C2=S)cc1C(F)(F)F [compound 90]
activity in the hormone refractory LNCaP/AR assay (LNCaP/AR cells): good activity

CNC(=O)c1ccc(N2C(=S)N(c3ccc(C#N)c(C(F)(F)F)c3)C(=O)C2(C)C)cc1F [compound 92, N-Methyl-4-[3-(4-cyano-3-trifluoromethylphenyl)-5,5-dimethyl-4-oxo-2-thioxoimidazolidin-1-yl]-2-fluorobenzamide]
dose-response study on castration resistant LNCaP AR cells (LNCaP/AR cells; Figure 9): a little more active than 91
activity (LNCaP/AR cells): very active

CNC(=O)c1ccc(N2C(=S)N(c3ccc(C#N)c(C(F)(F)F)c3)C(=O)C23CCCC3)cc1F [compound 93, N-Methyl-4-[3-(4-cyano-3-trifluoromethylphenyl)-4-oxo-2-thioxo-1,3-diazaspiro[4.4]nonan-1-yl]-2-fluorobenzamide]
activity (LNCaP/AR cells): very active

CN(C)C(=O)CCCc1ccc(N2C(=S)N(c3ccc(C#N)c(C(F)(F)F)c3)C(=O)C23CCC3)cc1 [compound 94, N,N-dimethyl-4-[4-(7-(4-cyano-3-trifluoromethylphenyl)-8-oxo-6-thioxo-5,7-diazaspiro-[3.4]octan-5-yl)phenyl]butanamide]
activity (LNCaP/AR cells): quite good activity compared to earlier compounds

N#CCCCc1ccc(N2C(=S)N(c3ccc(C#N)c(C(F)(F)F)c3)C(=O)C23CCC3)cc1 [compound 95, 4-[5-(4-(3-Cyanopropyl)phenyl)-8-oxo-6-thioxo-5,7-diazaspiro[3.4]octan-7-yl]-2-(trifluoromethyl) benzonitrile]
activity (LNCaP/AR cells): quite good activity compared to earlier compounds
